We go through nine molecules from patent US20230312652A1, “NOVEL PEPTIDES AND USES THEREOF” (Aarhus Universitet, priority 2020, published 2023).

In test [1] the test system is CREB. The test is described as follows: CREB activation (phosphorylation on serine 133) in wild-type cortical neurons, western blotting. Format: cell-based, mouse. To be noted: 20 minutes, 7 days in vitro. Here is the method: (§1) To assess the ability of peptides P1, P2 and P6, respectively, to activate transcription factor CREB, cortical neurons were isolated from p0 wild-type mice and seeded in a density of 500.000 per well. After 7 days in vitro the neurons were stimulated with the different peptide variants at 1 uM in neurobasal A media and incubated at 37° C. and 5% C02 for 20 minutes. Hereafter, the neurons were lysed in lysis buffer containing DTT and cOmplete cocktail protease inhibitor and subsequently sonicated to disrupt the nuclear membrane. The phosphorylation of CREB on serine 133 was validated by western blotting normalized to beta-actin. As control, cells were stimulated with a scrambled peptide (Scr). Student's t-test was used for statistical analysis.
as §1, with “The” for “To assess the”, “peptide P1” for “peptides P1, P2”, “a linear peptide analog of P1 with acetylated N- and amidated C-terminals (referred to as LP1)” for “P6, respectively,”, “CREB was assessed. Cortical” for “CREB, cortical”, “20 nM” for “1 uM”, “CO2” for “C02”
On the technique in general: Immunoblotting shows a protein as a band on a membrane.

The subject of test [2] is CREB. The test is described as follows: CREB activation in striatum and hippocampus of wild-type mice after IV injection. Format: in vivo, mouse. As to conditions: 0.26 mg/kg IV, 1 hour after injection. Here is the method: To assess this, 8 weeks old wild-type mice were injected intravenously with either 0.26 mg/kg of peptide P1 or LP1 dissolved in saline. 1 hour after the injection, the mice were sacrificed by cervical dislocation and striatal tissue was isolated by dissection and immediately lysed using a TissueLyser in lysis buffer containing cOmplete and DTT. The samples were subsequently homogenized by sonication. The phosphorylation of CREB on serine 133 was subsequently validated by western blotting. The levels of phosphorylated CREB were normalized to the corresponding beta-actin levels. Student's t-test was used for statistical analysis.

Test [3] concerns AMPK (T172) and CREB (S133). The test is described as follows: P1 activation of AMPK and CREB with or without CaMKK2-inhibitor STO-609 in cortical neurons. Format: cell-based, mouse. To be noted: 5 uM STO-609. Here is the method: Mouse cortical neurons were isolated from p0 wild-type mice and seeded in a density of 250,000 per well in a 12-well tray. After 7 days in vitro the neurons were either pre-treated with STO-609 (5 uM) for 1 hour or with DMSO (control). After 1 hour, the neurons were stimulated with P1 or a scrambled peptide (Scr), with or without STO-609, in neurobasal A media and incubated at 37° C. and 5% CO2 for 20 minutes. Hereafter, the neurons were lysed in lysis buffer containing DTT and cOmplete cocktail protease inhibitor. Phosphorylation of AMPK (T172) and CREB (S133) was validated by western blotting and normalized to beta-actin.

The test system of test [4] is CREB and AMPK. The test is described as follows: CREB and AMPK activation in brain of wild-type mice after subcutaneous injection. Format: in vivo, mouse. To be noted: 3.6 mg/kg SC, separate study. The method, then: To assess the subcutaneous administration route of peptide P1, 8 weeks old wild-type mice were subcutaneously injected with different doses ranging between 0.13 to 26 mg/kg of peptide P1 dissolved in 4.38 mM L-His, 140 mM NaCl, 0.2% Tween-20 and 1500 IU hyaluronidase (pH 6.15). Likewise, was an earlier lead peptide constituting a linear version of P1 attached to a cell-penetrating moiety (P9, SEQ ID NO: 9), tested for its ability to activate CREB in both striatum and hippocampus (in a separate study) following subcutaneous injection with 3.6 mg/kg. 2 hours after injection the mice were sacrificed by cervical dislocation and striatal tissue was isolated by dissection and snap frozen in liquid nitrogen and stored at −80° C. until further use. To assess the activation of CREB and AMPK, the tissue was lysed using a TissueLyser in lysis buffer containing cOmplete and DTT. The samples were subsequently homogenized by sonication. The phosphorylation of CREB on serine 133 and threonine 172 on AMPK was subsequently validated by western blotting and the levels of were normalized to beta-actin. Student's t-test was used for statistical analysis.

Test [5] deals with cortical neurons. In words: Survival of wild-type cortical neurons, MTT assay. Format: cell-based, mouse. As to conditions: for relative survival compared to control: 1 uM on DIV7, DIV9 and DIV11, MTT at DIV12. The method, then:
Cortical neurons were isolated from p0 wild-type mice and seeded in a density of 50.000 in a 96-well plate pre-coated with poly-L and laminin and incubated at 37° C. in a 5% C02 atmosphere. At 7 days in vitro (DIV7) the neurons were treated by changing half the media with neurobasal A with B27 containing the peptides (P2, P4 or P6) to give a finale concentration of 1 uM and further incubated. The cortical neurons were treated in a likewise manner on DIV9 and DIV11. At DIV12 half the media was removed and 3-(4,5-dimethylthiazole-2-yl)-2,5-diphenyltetrazolium bromide (MTT) was added to the media to give a finale concentration of 0.5 mg/mL. MTT is reduced by mitochondrial enzymes in active cells to an insoluble product called formazan, which can be detected by colorimetry. Thus, the colour generated reflects activity and viable cells in the culture. The neurons were incubated for 4 hours with MTT and thereafter lysed in a 50% EtOH and 50% DMSO solution. To assure proper mixing of formazan, the plate was left to shake for 30 minutes before being measured at 570 nm and 650 nm. Student's t-test was used for statistical analysis.
Further, a drug-dose response on survival for peptide P1 was assessed in a similar manner.
For orientation: Formazan colour is commonly taken as a measure of viable cells.

Test [6] deals with GRN(+/-) cortical neurons. The test is described as follows: Survival of GRN-deficient cortical neurons, MTT assay. Format: cell-based, mouse. As to conditions: 1 uM on DIV7, 9, 11, 13 and 15; MTT at DIV16.
Test [7] has as its system hippocampal neurons. In words: Neuronal branching in wild-type hippocampal neurons. Format: cell-based, mouse. To be noted: DIV1 to DIV4. Here is the method: Hippocampal neurons were isolated from p0 wild-type mice and seeded in a density of 10.000 per well in 24-well trays containing poly-D and laminin coated coverslips. At DIV1 the neurons were treated with 0.1 uM or 1 uM P6. BDNF (1 nM) was used as a positive control. At DIV4 the neurons were fixed and immunostained for MAP2, a marker of dendrites. Pictures of MAP2 were taken of neurites with 20 neurons pr. coverslip. The neurites may not be in contact with other neurites from other neurons. The pictures were analysed in Imaris Software. The number branches were counted manually.

The test system of test [8] is SV2A. In words: SV2A levels in wild-type neurons, western blotting. Format: cell-based, mouse. As to conditions: 0.1 uM or 1 uM from DIV8 for 3 days. The method, then: Hippocampal neurons were isolated from p0 wild-type mice and seeded in a density of 250,000 per well in 12-well trays precoated with poly-L and laminin. At DIV8 the neurons were treated with 0.1 uM or 1 uM P6 for 3 days. The neurons were lysed in RIPA buffer containing cOmplete and phosSTOP and SV2A levels were validated by western blotting, normalized to beta-actin.

In test [9] the test system is spared nerve injury (SNI) model. The test is described as follows: Spared nerve injury mouse model, acute, von Frey test. Format: in vivo. To be noted: single SC dose 17 days post-SNI operation. The method, then: (§2) To assess the effect of peptide P3 on neuropathic pain, the spared nerve injury (SNI) model was used. The threshold for mechanical pain response is determined by testing with von Frey filaments of increasing bending force, which are repetitively pressed against the lateral area of the paw. Two baseline measurements were made before SNI operation. In brief, the common peroneal and tibial branches of the sciatic nerve were ligated and cut distally to the ligation, just distal to the branching of the sural nerve, which was left untouched. The mechanical allodynia was subsequently assessed with von Frey testing 17 days post-surgery. […] Student's t-test was used for statistical analysis.

The test system is the same in test [10]. The test is described as follows: Spared nerve injury mouse model, daily dosing, von Frey test. Format: in vivo. To be noted: single SC dose daily for 8 days from 1 day post-SNI operation. Here is the method: as §2
Mice, surgery and von Frey testing was performed as in Example 28.
Student's t-test was used for statistical analysis.

The target of test [11] is mouse brain homogenate. In words: brain homogenate binding: 2 uM P1, ultracentrifugation, LCMS.
Test [12] addresses mouse plasma (plasma proteins). In words: plasma binding: 2 uM P1 in plasma, ultracentrifugation, LCMS.
Test [13] has as its target human plasma (plasma proteins). The test is described as follows: plasma binding: 2 uM P1 in plasma, ultracentrifugation, LCMS; % Bound=100*(1-F/T4.5).

Where a SMILES comes first, the peptide text is derived from it. Some results are limits rather than exact numbers.

As for `CSCC[C@H](NC(C)=O)C(=O)N[C@H](C(=O)N[C@@H](CCC(=O)O)C(=O)N1CCC[C@H]1C(=O)N[C@H](C(=O)N[C@@H](CCC(=O)O)C(=O)N[C@@H](Cc1c[nH]cn1)C(=O)N[C@@H](CCC(=O)O)C(=O)N[C@@H](CCC(=O)O)C(=O)N[C@@H](CC(=O)O)C(=O)N[C@H](C(N)=O)C(C)C)C(C)C)[C@@H](C)O` [LP1, Ac-MTEPVEHEEDV—NH2, reference compound] (Ac-MTEPVEHEEDV-NH2), in test [1] (20 nM), the “activation of CREB (phosphorylation on serine 133) compared to scrambled peptide” value (“activation … compared to scrambled peptide” for short) is listed as “activated CREB to a lesser extent”. In test [2], the “pCREB (S133) in hippocampus” value is “increase phosphorylated CREB” and the “pCREB (S133) in striatum” value is listed as “increase phosphorylated CREB”.

For `O=C(O)c1ccc2c3c1cccc3c(=O)n1c3ccccc3nc21` [STO-609, reference compound], the “AMPK phosphorylation following STO-609-treatment” value in [3] was “inhibition of AMPK”.

On to “YARAAARNARAEKEQEMTDPVDHDEDVQGAVQ (Linear peptide) [Peptide P9, reference compound]”, for which, in test [4], the pCREB in hippocampus entry is “not able to notably activate CREB” and the pCREB in striatum entry is given as “not able to notably activate CREB”.

Turning to [MIEPVEHEESR] [Peptide P4], the “relative survival compared to control” value in test [5] and in test [6] was “increased the relative survival” in each case.

As to [MIGSVEQEENA] [Peptide P6], in test [1] (1 uM), the “activation … compared to scrambled peptide” value is given as “markedly activated CREB”. For the same molecule, the “relative survival compared to control” value in test [5] and in test [6] was “increased the relative survival” in each case. The neurite branching entry in [7] (0.1 uM) and in test [7] (1 uM) was “increased neurite branching similar to BDNF” each time. Besides, the SV2A levels result in test [8] is “increased SV2A levels”.

In the case of [MTAPVAHAEDV] [Peptide P3], the “neuropathic pain, von Frey test” value is given as “attenuated the pain in an acute manner” in test [9] and “continuously reduced the neuropathic pain” in [10].

For [MTDPVDHDEDV] [Peptide P2], in test [1] (1 uM), the “activation … compared to scrambled peptide” value is “markedly activated CREB”. Moreover, the “relative survival compared to control” value in [5] and in test [6] was “increased the relative survival” each time.

B1: BDNF (protein, UniProt P23560 19-247, looked up)
Neurotrophic factor BDNF …: APMKEANIRGQGGLAYPGVRTHGTLESVNGPKAGSRGLTSLADTFEHVIEELLDEDQKVRPNEENNKDADLYTSRVMLSSQVPLEPPLLFLLEEYKNYLDAANMSMRVRRHSDPARRGELSVCDSISEWVTAADKKTAVDMSGGTVTVLEKVPVSKGQLKQYFYETKCNPMGYTKEGCRGIDKRHWNSQCRTTQSYVRALTMDSKKRIGWRFIRIDTSCVCTLTIKRGR
notes: neurotrophic factor used as a positive control
Regarding B1, in test [5] (BDNF as positive control), the “survival in drug-dose response study” value is listed as “increased survival to a lesser extent than peptide P1”.

B2: Cyclic peptide P1 (peptide)
peptide: MTEPVEHEEDV
modifications: Cyclic (backbone): head-to-tail cyclized via the M amino acid residue in position 1 and the V amino acid residue in position 11
In the case of B2, the brain homogenate binding in [11] is < 20%. For the same molecule, the unbound in plasma in test [12] is > 75%. This molecule also displayed a plasma binding in [13] of 20%.
